Test results published in patent US7750155B2, “Pyrazinyl hydroxyacrylamide compounds having an inhibitory effect on the activity of histone deacetylase” (Astellas Pharma Inc., priority 2006, dated 2010).
Counter-ions that a name gives are not always drawn.

Columns and labels:
[1] = tested on: splenic cells of Lewis rats (T lymphocyte blastogenesis); assay: Test 2: T-cell growth inhibitor activity (T lymphocyte blastogenesis, Concanavalin A, AlamarBlue); format: cell-based; conditions: Lewis rat splenic cells, Concanavalin A 1 μg/mL, 72 hours, read-out: Test 2: T-cell growth inhibitory activity IC50
Experimental: Test 2: Determination of T-Cell Growth Inhibitor Activity
The T lymphocyte blastogenesis test was performed in microtiter plates with each well containing 1.5×10^5 splenic cells of Lewis rats in 0.1 mL RPMI-1640 medium supplemented with 10% fetal bovine serum (FBS), […] 2-mercaptoethanol, penicilln (100 units/mL) and streptomycin (100 μg/mL), to which Concanavalin A (1 μg/mL) was added. The cells were incubated at 37° C. in a humidified atmosphere of 5% CO2 for 72 hours. After the culture period, suppressive activities of the test compounds in T lymphocyte blastogenesis were quantified by AlamarBlue (trademark) Assay. The test samples were dissolved in DMSO and further diluted with RPMI-1640 medium and added to the culture. The activities of the test compounds were expressed as IC50.

[2] = tested on: T1, human histone deacetylase partially purified from human T cell leukemia Jurkat cells; assay: Test 1: Determination of histone deacetylase inhibitor activity ([3H]acetyl histone deacetylation); format: biochemical; conditions: partially purified human HDAC from Jurkat cells, [3H]acetyl histone substrate, 25° C., 30 minutes; read-out: Test 1: HDAC inhibitory activity IC50
T1 construct: The human histone deacetylase was partially purified from human T cell leukemia Jurkat cells
Experimental: Test 1: Determination of Histone Deacetylase Inhibitor Activity
The partial purification of human histone deacetylase, the preparation of [^3H] acetyl histones, and the assay for histone deacetylase activity were performed basically according to the method as proposed by Yoshida et al. as follows.
Partial Purification of Human Histone Deacetylase
The human histone deacetylase was partially purified from human T cell leukemia Jurkat cells. Jurkat cells (5×10^8 cells) were suspended in 40 mL of the HDA buffer consisting of 15 mM potassium phosphate, pH 7.5, 5% glycerol and 0.2 mM EDTA. After homogenization, nuclei were collected by centrifugation (35,000×g, 10 min) and homogenized in 20 mL of the same buffer supplemented with 1 M (NH4)2SO4. The viscous homogenate was sonicated and clarified by centrifugation (35,000×g, 10 min), and the deacetylase was precipitated by raising the concentration of (NH4)2SO4 to 3.5 M. The precipitated protein was dissolved in 10 mL of the HDA buffer and dialyzed against 4 liters of the same buffer. The dialyzate was then loaded onto a DEAE-cellulose (Whatman DE52) column (25×85 mm) equilibrated with the same buffer and eluted with 300 mL of a linear gradient (0-0.6 M) of NaCl. A single peak of histone deacetylase activity appeared between 0.3 and 0.4 M NaCl.
Preparation of [^3H] Acetyl Histone
To obtain [^3H] acetyl-labeled histone as the substrate for the histone deacetylase assay, 1×10^8 cells of Jurkat in 20 mL of RPMI-1640 medium (supplemented with 10% FBS, penicillin (50 units/mL) and streptomycin (50 μg/mL)) were incubated with 300 MBq [^3H] sodium acetate in the presence of 5 mM sodium butyrate for 30 minutes in 5% CO2-95% air atmosphere at 37° C. in a […] flask, harvested into a centrifuge tube (50 mL), collected by centrifugation at 1000 rpm for 10 minutes, and washed once with phosphate-buffered saline. The washed cells were suspended in 15 mL of ice-cold lysis buffer (10 mM Tris-HCl, 50 mM sodium bisulfite, 1% Triton X-100, 10 mM MgCl2, 8.6% sucrose, pH 6.5). After Dounce homogenization (30 stroke), the nuclei were collected by centrifugation at 1000 rpm for 10 minutes, washed 3 times with 15 mL of the lysis buffer, and once with 15 mL of ice-cooled washing buffer (10 mM Tris-HCl, 13 mM EDTA, pH 7.4) successively. The pellet was suspended in 6 mL of ice-cooled water using a mixer, and 68 μl of H2SO4 was added to the suspension to give a concentration of 0.4 N. After incubation at 4° C. for 1 hour, the suspension was centrifuged for 5 minutes at 15,000 rpm, and the supernatant was taken and mixed with 60 mL of acetone. After overnight incubation at −20° C., the coagulated material was collected by microcentrifugation, air-dried, and stored at −80° C.
Assay for Histone Deacetylase Activity
For the standard assay, 10 μl of [^3H] acetyl-labeled histones were added to 90 μl of the enzyme fraction, and the mixture was incubated at 25° C. for 30 minutes. The reaction was stopped by addition of 10 μl of HCl. The released [^3H] acetic acid was extracted with 1 mL of ethyl acetate, and 0.9 mL of the solvent layer was taken into 10 mL of toluene scintillation solution for determination of radioactivity.

| SMILES | IC50 [1] | IC50 [2] |
| --- | --- | --- |
| O=C(/C=C/c1cnc(N[C@@H]2CCN(CCc3ccc(F)cc3F)C2)cn1)NO [Example 2, (2E)-3-[5-({(3R)-1-[2-(2,4-difluorophenyl)ethyl]-3-pyrrolidinyl}amino)-2-pyrazinyl]-N-hydroxyacrylamide dihydrochloride] | 2.3 nM | 1.5 nM |
| O=C(/C=C/c1cnc(N[C@@H]2CCN(CCc3c(F)cccc3F)C2)cn1)NO [Example 3, (2E)-3-[5-({(3R)-1-[2-(2,6-difluorophenyl)ethyl]-3-pyrrolidinyl}amino)-2-pyrazinyl]-N-hydroxyacrylamide dihydrochloride] | 1.2 nM | 2.7 nM |
| O=C(/C=C/c1cnc(N[C@@H]2CCN(CCc3cccs3)C2)cn1)NO [Example 4, (2E)-N-hydroxy-3-[5-({(3R)-1-[2-(2-thienyl)ethyl]-3-pyrrolidinyl}amino)-2-pyrazinyl]acrylamide dihydrochloride] | 1.2 nM | 3.6 nM |
| O=C(/C=C/c1cnc(N[C@@H]2CCCN(CCc3ccccc3F)C2)cn1)NO [Example 7, (2E)-3-[5-({(3R)-1-[2-(2-fluorophenyl)ethyl]-3-piperidinyl}amino)-2-pyrazinyl]-N-hydroxyacrylamide dihydrochloride] | 0.79 nM | 1.5 nM |
| O=C(/C=C/c1cnc(N[C@@H]2CCCN(CCc3ccc(F)cc3F)C2)cn1)NO [Example 8, (2E)-3-[5-({(3R)-1-[2-(2,4-difluorophenyl)ethyl]-3-piperidinyl}amino)-2-pyrazinyl]-N-hydroxyacrylamide dihydrochloride] | 1.1 nM | 1.7 nM |
| O=C(/C=C/c1cnc(N[C@@H]2CCCN(CCc3ccc(F)c(F)c3)C2)cn1)NO [Example 9, (2E)-3-[5-({(3R)-1-[2-(3,4-difluorophenyl)ethyl]-3-piperidinyl}amino)-2-pyrazinyl]-N-hydroxyacrylamide dihydrochloride] | 1.8 nM | 1 nM |
| CN(C)c1ccccc1CN1CC[C@@H](Nc2cnc(/C=C/C(=O)NO)cn2)C1 [Example 10, (2E)-3-[5-({(3R)-1-[2-(dimethylamino)benzyl]-3-pyrrolidinyl}amino)-2-pyrazinyl]-N-hydroxyacrylamide trihydrochloride] | 3.2 nM | 3 nM |
| COc1cc(CN2CC[C@@H](Nc3cnc(/C=C/C(=O)NO)cn3)C2)ccc1F [Example 11, (2E)-3-(5-{[(3R)-1-(4-fluoro-3-methoxybenzyl)-3-pyrrolidinyl]amino}-2-pyrazinyl)-N-hydroxyacrylamide dihydrochloride] | 4.5 nM | 0.95 nM |
| O=C(/C=C/c1cnc(N[C@@H]2CCN(CC3CCCC3)C2)cn1)NO [Example 12, (2E)-3-(5-{[(3R)-1-(cyclopentylmethyl)-3-pyrrolidinyl]amino}-2-pyrazinyl)-N-hydroxyacrylamide dihydrochloride] | 2 nM | 0.59 nM |
| O=C(/C=C/c1cnc(N[C@@H]2CCN(CC3(CO)CCCCC3)C2)cn1)NO [Example 13, (2E)-N-hydroxy-3-(5-{[(3R)-1-{[1-(hydroxymethyl)cyclohexyl]methyl}-3-pyrrolidinyl]amino}-2-pyrazinyl)acrylamide dihydrochloride] | 4.7 nM | 1.9 nM |
| O=C(/C=C/c1cnc(N[C@@H]2CCN(CC34CCC(CC3)O4)C2)cn1)NO [Example 14, (2E)-N-hydroxy-3-(5-{[(3R)-1-(7-oxabicyclo[2.2.1]hept-1-ylmethyl)-3-pyrrolidinyl]amino}-2-pyrazinyl)acrylamide dihydrochloride] | 1.2 nM | 3.8 nM |
| COc1ccc(F)cc1CN1CC[C@@H](Nc2cnc(/C=C/C(=O)NO)cn2)C1 [Example 15, (2E)-3-(5-{[(3R)-1-(5-fluoro-2-methoxybenzyl)-3-pyrrolidinyl]amino}-2-pyrazinyl)-N-hydroxyacrylamide dihydrochloride] | 6.4 nM | 4.4 nM |
| O=C(/C=C/c1cnc(N[C@@H]2CCN(Cc3cccc4ccccc34)C2)cn1)NO [Example 16, (2E)-N-hydroxy-3-[5-[{(3R)-1-(1-naphthylmethyl)-3-pyrrolidinyl}amino]-2-pyrazinyl]acrylamide dihydrochloride] | 4.1 nM | 6.6 nM |
| O=C(/C=C/c1cnc(N[C@@H]2CCCN(CCCc3ccccc3)C2)cn1)NO [Example 17, (2E)-N-hydroxy-3-[5-[{(3R)-1-(3-phenylpropyl)-3-piperidinyl}amino]-2-pyrazinyl]acrylamide dihydrochloride] | 5 nM | 3.3 nM |
| O=C(/C=C/c1cnc(N[C@@H]2CCN(CCC3CCCC3)C2)cn1)NO [Example 20, (2E)-3-(5-{[(3R)-1-(2-cyclopentylethyl)-3-pyrrolidinyl]amino}-2-pyrazinyl)-N-hydroxyacrylamide dihydrochloride] | 2.1 nM | 0.79 nM |
| O=C(/C=C/c1cnc(N[C@@H]2CCN(CCC3CCCCC3)C2)cn1)NO [Example 21, (2E)-3-(5-{[(3R)-1-(2-cyclohexylethyl)-3-pyrrolidinyl]amino}-2-pyrazinyl)-N-hydroxyacrylamide dihydrochloride] | 2.4 nM | 0.98 nM |
| O=C(/C=C/c1cnc(N[C@@H]2CCN(CCc3ccccc3Cl)C2)cn1)NO [Example 22, (2E)-3-[5-({(3R)-1-[2-(2-chlorophenyl)ethyl]-3-pyrrolidinyl}amino)-2-pyrazinyl]-N-hydroxyacrylamide dihydrochloride] | 1.3 nM | 0.87 nM |
| O=C(/C=C/c1cnc(N[C@@H]2CCCN(CCC3CCCC3)C2)cn1)NO [Example 24, (2E)-3-(5-{[(3R)-1-(2-cyclopentylethyl)-3-piperidinyl]amino}-2-pyrazinyl)-N-hydroxyacrylamide dihydrochloride] | 2.4 nM | 0.81 nM |
| O=C(/C=C/c1cnc(N[C@@H]2CCCN(CCc3ccccc3Cl)C2)cn1)NO [Example 26, (2E)-3-[5-({(3R)-1-[2-(2-chlorophenyl)ethyl]-3-piperidinyl}amino)-2-pyrazinyl]-N-hydroxyacrylamide dihydrochloride] | 0.44 nM | 1.4 nM |
| O=C(/C=C/c1cnc(N[C@@H]2CCCN(CCc3ccc(Cl)cc3)C2)cn1)NO [Example 27, (2E)-3-[5-({(3R)-1-[2-(4-chlorophenyl)ethyl]-3-piperidinyl}amino)-2-pyrazinyl]-N-hydroxyacrylamide dihydrochloride] | 0.38 nM | 0.92 nM |
| CC(C)(CN1CC[C@@H](Nc2cnc(/C=C/C(=O)NO)cn2)C1)c1ccccc1 [Example 28, (2E)-N-hydroxy-3-[5-[{(3R)-1-(2-methyl-2-phenylpropyl)-3-pyrrolidinyl}amino]-2-pyrazinyl]acrylamide dihydrochloride] | 11 nM | 4.2 nM |
| O=C(/C=C/c1cnc(N[C@@H]2CCN(CCCC3CCCCC3)C2)cn1)NO [Example 29, (2E)-3-[5-({(3R)-1-(3-cyclohexylpropyl)-3-pyrrolidinyl}amino)-2-pyrazinyl]-N-hydroxyacrylamide dihydrochloride] | 3.3 nM | 6.5 nM |
